Tests used:
CD19-positive cells = experiment: B cell depletion from human whole blood (HWB), flow cytometry, CD19; assay type: cell-based; conditions: 1 μM, 24 hrs
Method: (§1) A flow cytometry assay was used to compare the ability of S-isomer of compound of formula A, Ublituximab (Ubx), and combinations thereof to deplete B cells from human whole blood (HWB). In this assay, 50 μl of HWB sample was treated with either S-isomer of a compound of formula A (1000 nM), UBX (100 μg/ml to 0.1 μg/ml), or UBX in combination with S-isomer of a compound of formula A at 1000 nM and incubated for 24 hrs at 37° C. and 5% CO2. 20 μl of treated sample was taken in a 1.5 ml centrifuge tube and labeled with CD45 FITC and CD19 PE or CD20 FITC antibody and incubated in the dark for 1 hour at RT. 1 ml of red blood cell (RBC) lysing solution was added, and tubes were centrifuged at 3000 rpm for 10 minutes. […] The tubes were vortexed, and 5000 events were acquired on a Guava® easyCyte™ flow cytometer and analyzed with Incyte Software.
(§2) Gated population of CD45-positive cells were further analyzed for CD19. The number of cells that were positive for CD45 and CD19 was calculated, and the data was expressed as the percentage of CD19 positive cells in the population. CD20-positive populations were gated with fluorescence positive minus unlabeled cells, and the data was expressed as the percentage of CD20-positive cells in the population. The loss of CD19/CD20 population from control was calculated and expressed as % depletion with respect to control.

CD20-positive cells = experiment: B cell depletion from human whole blood (HWB), flow cytometry, CD20; assay type: cell-based; conditions: 1 μM, 24 hrs
Method: as §1, §2

CD19+ B-cell = experiment: LPS-induced proliferation in HWB, flow cytometry, CD19; assay type: cell-based, human; conditions: Homo sapiens, B-cell, 1 μM, 72 hrs
Method: Flow cytometry was used to study the effect of S-isomer of a compound of formula A, Ubx, and combinations thereof on LPS-induced proliferation of CD19 and CD20 cells in HWB. In these experiments, 250 μl of diluted (1:3.5 with RPMI-HG Media) HWB sample was treated with either S-isomer of a compound of formula A (10 μM to 0.1 μM), UBX (100 μg/ml to 0.1 μg/ml) or UBX with S-isomer of a compound of formula A at 1000 nM for 15 minutes followed by 20 μg/ml LPS induction and incubated for 72 hrs at 37° C. and 5% CO2. 20 μl of treated sample was taken in a 1.5 ml centrifuge tube and labeled with CD20 FITC and CD19 PE antibody and incubated in the dark for 1 hour at RT. 1 ml of RBC lysing solution was added and tubes were centrifuged at 3000 rpm for 10 minutes. Supernatant was aspirated, and 250 μl of PBS was added to the pellet. Tubes were vortexed, and 5000 events were acquired on a Guava® easyCyte™ flow cytometer and analyzed with Incyte Software.
Gated population of lymphocytes positive cells were further analyzed for CD19 and CD20. Cells positive for CD19 and/or CD20 were calculated, and data were expressed as the percentage positive cells in the population. The loss of positive population from control with LPS induction was calculated and expressed as % inhibition with respect to control.

[1] = test system: Daudi, RPMI-8226, Raji, and U266B1 cells; experiment: in situ caspase-3 kit, apoptosis (Example 3), cell lines tested; assay type: cell-based; conditions: 1 μM, cell lines, 24 hrs
Method: In order to determine the effect of S-isomer of a compound of formula A, UBX, and combinations thereof on apoptosis in cancer cells, an in situ caspase-3 kit (Millipore) was used. Cells were plated in a 6 well plate at a concentration of 0.5×10^6 cells/ml, treated with either S-isomer of a compound of formula A (1000 nM), UBX (100 μg/ml to 0.1 μg/ml), or UBX with S-isomer of a compound of formula A at 1000 nM, and incubated for 24 hrs at 37° C. and 5% CO2. The cells were then transferred to microfuge tubes to receive 10 μl of freshly prepared FLICA™ reagent and incubated for 1 hour at 37° C. and 5% CO2 away from light. After extensive washes with wash buffer, test samples were adjusted to equalize the number of cells in PBS. 100 μl of each cell suspension was transferred to black 96-well plates in duplicates, and the fluorescence was read at an excitation wavelength of 490 nm and an emission wavelength of 520 nm in a plate reader. The fluorescence intensity for a DMSO control was subtracted from that of test compounds. Data was expressed as a percent of the maximum response (100%) and plotted accordingly.

DB Cells = experiment: cell cycle assay, flow cytometry; assay type: cell-based; conditions: DB cells
Method: (§3) A cell cycle assay reagent (Millipore) was used to determine the effect of S-isomer of a compound of formula A, UBX, and combinations thereof on the cell cycle in cancerous cells. […] The cells were transferred to microfuge tubes to receive 50 μl of cell cycle reagent and incubated for 30 minutes at RT away from light. Cells were then diluted with 300-400 μl PBS, and a minimum of 10,000 events were acquired on a Guava® easyCyte™ flow cytometer. The data was analyzed with Express Pro software and the percentage of the cell population in different cell cycle stages with respect to control was presented in histograms.

U266B1 cells = experiment: cell cycle assay, flow cytometry; assay type: cell-based
Method: as §3

## CC(C)Oc1ccc(-c2nn([C@@H](C)c3oc4ccc(F)cc4c(=O)c3-c3cccc(F)c3)c3ncnc(N)c23)cc1F [S-isomer, (S)-2-(1-(4-amino-3-(3-fluoro-4-isopropoxyphenyl)-1H-pyrazolo[3,4-d]pyrimidin-1-yl)ethyl)-6-fluoro-3-(3-fluorophenyl)-4H-chromen-4-one]
CD19-positive cells
  reduction in CD19-positive HWB B-cells: not observed
CD20-positive cells
  reduction in CD20-positive HWB B-cells: not observed
CD19+ B-cell
  inhibition at 1 µM: ~60%
[1]
  Caspase-3 activity increase: 40-75%
DB Cells; 72 h, 0.1 nM
  G0/G1, percentage of the cell population: 54.37
  G2/M, percentage of the cell population: 39.41
  S, percentage of the cell population: 4.84
  Sub G0, percentage of the cell population: 0.84
DB Cells; 72 h, 1 nM
  G0/G1, percentage of the cell population: 50.61
  G2/M, percentage of the cell population: 41.44
  S, percentage of the cell population: 6.53
  Sub G0, percentage of the cell population: 0.54
DB Cells; 72 h, 10 nM
  G0/G1, percentage of the cell population: 47.22
  G2/M, percentage of the cell population: 46.85
  S, percentage of the cell population: 4.98
  Sub G0, percentage of the cell population: 0.55
DB Cells; 72 h, 100 nM
  G0/G1, percentage of the cell population: 41.21
  G2/M, percentage of the cell population: 50.22
  S, percentage of the cell population: 6.96
  Sub G0, percentage of the cell population: 0.43
DB Cells; 72 h, 1000 nM
  G0/G1, percentage of the cell population: 0.75
  G2/M, percentage of the cell population: 92.79
  S, percentage of the cell population: 0.42
  Sub G0, percentage of the cell population: 5.36
DB Cells; 72 h, 10,000 nM
  G0/G1, percentage of the cell population: 1.40
  G2/M, percentage of the cell population: 94.87
  S, percentage of the cell population: 0.89
  Sub G0, percentage of the cell population: 2.06
U266B1 cells; 72 h, 0.1 nM
  G0/G1, percentage of the cell population: 59.26
  G2/M, percentage of the cell population: 30.71
  S, percentage of the cell population: 6.55
  Sub G0, percentage of the cell population: 2.75
U266B1 cells; 72 h, 1 nM
  G0/G1, percentage of the cell population: 57.73
  G2/M, percentage of the cell population: 36.19
  S, percentage of the cell population: 4.87
  Sub G0, percentage of the cell population: 0.94
U266B1 cells; 72 h, 10 nM
  G0/G1, percentage of the cell population: 55.33
  G2/M, percentage of the cell population: 39.28
  S, percentage of the cell population: 5.38
  Sub G0, percentage of the cell population: 0.76
U266B1 cells; 72 h, 100 nM
  G0/G1, percentage of the cell population: 48.69
  G2/M, percentage of the cell population: 45.76
  S, percentage of the cell population: 5.49
  Sub G0, percentage of the cell population: 0.75
U266B1 cells; 72 h, 1000 nM
  G0/G1, percentage of the cell population: 47.80
  G2/M, percentage of the cell population: 47.13
  S, percentage of the cell population: 4.69
  Sub G0, percentage of the cell population: 0.88
U266B1 cells; 72 h, 10,000 nM
  G0/G1, percentage of the cell population: 2.00
  G2/M, percentage of the cell population: 64.31
  S, percentage of the cell population: 0.94
  Sub G0, percentage of the cell population: 28.88

Source: patent publication US10729768B2, “Combination of anti-CD20 antibody and PI3 kinase selective inhibitor” (TG Therapeutics, Inc., priority 2012, dated 2020)
